Test results from publication PMC11232109, “Synthesis, anticancer evaluation of novel hybrid pyrazole-based chalcones, molecular docking, DNA fragmentation, and gene expression: in vitro studies” (RSC Advances, 2024).

Experiments:
Assay type in all cases: cell-based
PC3 (prostatic cancer) = assay: MTT assay, PC3; settings: Homo sapiens, 48 h, MTT, read-out: (%) Mortality of PC3; for cytotoxicity at 100 µg/mL: at 100 μg ml^−1, 48 hours
Method: (§1) The percentage of the cell viability treated with the newly synthesized compounds was evaluated using MTT assay (3-(4,5-dimethylthiazol-2-yl)-2,5-diphenyl tetrazolium bromide). All the subsequent steps were done in a sterile Laminar flow class II biosafety cabinet (Baker, SG406INT, Sanford, ME, USA). DMEM was used as a suspension medium for breast cancer (MCF7), prostate cancer (PC3), and pancreatic cancer (PACA2), while normal cell line (BJ1) was suspended in DMEM-F12 medium, a 1% antibiotic-antimycotic mixture (10 000 U ml^−1 potassium penicillin, 10 000 μg ml^−1 streptomycin sulfate, and 25 μg ml^−1 amphotericin B), and 1% L-glutamine at 37 °C under 5% CO2.
(§2) Cells were cultured for 10 days and then seeded at a concentration of 10 × 10^4 cells per well in fresh complete growth medium in 96-well microtiter plastic plates at 37 °C for 24 hours under 5% CO2 using a water-jacketed carbon dioxide incubator (Sheldon, TC2323). Media were aspirated, serum-free fresh medium was added, and cells were incubated either alone (negative control) or with different concentrations of the synthesized chalcone derivatives to a final concentration of (100–50–25–12.5–6.25–3.125–0.78 and 1.56 μg ml^−1). After incubation for 48 hours, the medium was aspirated and 40 μl of MTT salt ([…]) was added to each well and incubated for another four hours at 37 °C under 5% CO2. To stop the reaction and dissolve the formed crystals, 200 μl of 10% sodium dodecyl sulfate (SDS) in deionized water was added to each well and incubated overnight at 37 °C.
(§3) The absorbance was then measured at 595 nm and a reference wavelength of 620 nm using a microplate multi-well reader (Bio-Rad Laboratories Inc., model 3350). Statistical significance was tested between the samples and the negative control (cells with vehicle) using an independent t-test using the SPSS 11 program. DMSO was the vehicle used for the dissolution of the synthesized chalcones, and its final concentration on the cells was less than 0.2%. The percentage of change in viability was calculated according to the formula: ((reading of extract/reading of negative control) − 1) × 100. A Probit analysis was carried out for the determination of IC50 using the SPSS 11 program.

[1] = system: MCF7 (human breast adenocarcinoma); assay: MTT assay, MCF7; settings: Homo sapiens, MTT; for cytotoxicity at 100 µg/mL: at 100 μg ml^−1, 48 hours
Method: as §1, §2, §3

[2] = system: PACA2 (pancreatic carcinoma); assay: MTT assay, PACA2; settings: Homo sapiens, PaCa-2, 48 h, MTT, read-out: (%) Mortality of PACA2; for cytotoxicity at 100 µg/mL: at 100 μg ml^−1, 48 hours
Method: as §1, §2, §3

[3] = MTT assay, normal cell line BJ1; settings: human, BJ1 normal skin fibroblasts, at 100 μg ml^−1, 48 hours, read-out: (%) Mortality of BJ1
Method: as §1, §2, §3

[4] = system: BJ1 (normal skin fibroblasts); assay: MTT assay, normal cell line BJ1; settings: Skin fibroblast, 48 hours
Method: as §1, §2, §3

[5] = MCF7, 48 h, read-out: (%) Mortality of MCF7

Row | IC50 ([1]; MCF7, 48 hours) [µM] | Structure (SMILES) | cytotoxicity at 100 µg/mL (PC3 (prostatic cancer)) [%] | cytotoxicity at 100 µg/mL [1, 5] [%] | cytotoxicity at 100 µg/mL [2] [%] | cytotoxicity at 48 h, 100 μg ml^−1 [3] [%] | cytotoxicity at 6.25 µg/mL (PC3 (prostatic cancer); up to 6.25 μg ml^−1, 48 hours) [%] | cytotoxicity at 6.25 µg/mL ([1]; MCF7, 48 h, up to 6.25 μg ml^−1, 48 hours, read-out: (%) Mortality of MCF7) [%] | IC50 [4] [µM] | cytotoxicity at 6.25 µg/mL ([2]; up to 6.25 μg ml^−1, 48 hours) [%]
1 |  | Cc1c(C(=O)C=Cc2nn(-c3ccccc3)cc2-c2ccc(Cl)cc2)c(-c2cccs2)nn1-c1ccc([N+](=O)[O-])cc1 [Compound 9d, 3-(4-(4-Chlorophenyl)-1-phenyl-1H-pyrazol-3-yl)-1-(5-methyl-1-(4-nitrophenyl)-3-(thiophen-2-yl)-1H-pyrazol-4-yl)prop-2-en-1-one] | 3.5 ± 0.92 | 44.2 ± 0.33 | 54.5 ± 0.84 |  |  |  |  | 
2 |  | Cc1c(C(=O)C=Cc2nn(-c3ccccc3)cc2-c2cccs2)c(-c2cccs2)nn1-c1ccc([N+](=O)[O-])cc1 [Compound 9f, 1-(5-Methyl-1-(4-nitrophenyl)-3-(thiophen-2-yl)-1H-pyrazol-4-yl)-3-(1-phenyl-4-(thiophen-2-yl)-1H-pyrazol-3-yl)prop-2-en-1-one] | 4.5 ± 0.23 | 80.4 ± 0.25 | 16.5 ± 0.35 |  |  |  |  | 
3 | 72.3 ± 0.34 | Cc1c(C(=O)C=Cc2ccco2)c(-c2cccs2)nn1-c1ccc([N+](=O)[O-])cc1 [Compound 7a, 3-(Furan-2-yl)-1-(5-methyl-1-(4-nitrophenyl)-3-(thiophen-2-yl)-1H-pyrazol-4-yl)prop-2-en-1-one] | 3.8 ± 0.65 | 63.5 ± 0.11 | 17.3 ± 0.13 | 11.2 ± 0.48 |  |  |  | 
4 |  | Cc1ccc(-c2cn(-c3ccccc3)nc2C=CC(=O)c2c(-c3cccs3)nn(-c3ccc([N+](=O)[O-])cc3)c2C)cc1 [Compound 9b, 1-(5-Methyl-1-(4-nitrophenyl)-3-(thiophen-2-yl)-1H-pyrazol-4-yl)-3-(1-phenyl-4-(p-tolyl)-1H-pyrazol-3-yl)prop-2-en-1-one] | 27.2 ± 0.31 | 44.5 ± 0.74 | 39.5 ± 0.91 |  |  |  |  | 
5 |  | Cc1c(C(=O)C=Cc2nn(-c3ccccc3)cc2-c2ccccc2)c(-c2cccs2)nn1-c1ccc([N+](=O)[O-])cc1 [Compound 9a, 3-(1,4-Diphenyl-1H-pyrazol-3-yl)-1-(5-methyl-1-(4-nitrophenyl)-3-(thiophen-2-yl)-1H-pyrazol-4-yl)prop-2-en-1-one] | 4.5 ± 0.26 | 42.3 ± 0.21 | 50.3 ± 0.42 |  |  |  |  | 
6 |  | Cc1c(C(=O)C=Cc2cccs2)c(-c2cccs2)nn1-c1ccc([N+](=O)[O-])cc1 [Compound 7b, 1-(5-Methyl-1-(4-nitrophenyl)-3-(thiophen-2-yl)-1H-pyrazol-4-yl)-3-(thiophen-2-yl)prop-2-en-1-one] | 4.2 ± 0.73 | 45.3 ± 0.98 | 32.5 ± 0.74 |  |  |  |  | 
7 |  | COc1ccc(-c2cn(-c3ccccc3)nc2C=CC(=O)c2c(-c3cccs3)nn(-c3ccc([N+](=O)[O-])cc3)c2C)cc1 [Compound 9c, 3-(4-(4-Methoxyphenyl)-1-phenyl-1H-pyrazol-3-yl)-1-(5-methyl-1-(4-nitrophenyl)-3-(thiophen-2-yl)-1H-pyrazol-4-yl)prop-2-en-1-one] | 2.9 ± 0.57 | 25.2 ± 0.41 | 19.8 ± 0.68 |  |  |  |  | 
8 |  | Cc1c(C(=O)C=Cc2ccncc2)c(-c2cccs2)nn1-c1ccc([N+](=O)[O-])cc1 [Compound 7c, 1-(5-Methyl-1-(4-nitrophenyl)-3-(thiophen-2-yl)-1H-pyrazol-4-yl)-3-(pyridin-4-yl)prop-2-en-1-one] |  |  |  | 52.3 ± 0.76 | 100 | 100 | 86.2 ± 0.22 | 100
